{"source": "patent US6943924B2", "about": "“Apparatus and method for digital holographic imaging” (Ecole Polytechnique Federale de Lausanne (EPFL), priority 2001, dated 2005)", "test_system": "cultured mouse cortical neurons", "experiment": "Digital holographic imaging (DHI) of glutamate-mediated morphological changes (phase/OPL signal) in neurons", "type": "cell-based", "source_text": "FIG. 3 presents an example of application of the present invention to image living cells in culture enclosed in a perfusion chamber 30 filled with a physiological solution 37. […] A CCD camera 35 records the hologram. The hologram is produced by the interference with a reference wave 36. A numerical procedure is then applied to reconstruct the hologram. The obtained phase-contrast image can be presented in 3D perspective, as presented for example in FIG. 4d.\nFrom the quantitative phase-contrast image, quantitative data about the cell morphology can be obtained. The refractive index, at the wavelength of 633 nm, of the perfused solution nm=1.3336±0.0002, was measured with an Abbe refractometer. By assuming, in first approximation, a constant and homogeneous cellular refractive index ns=1.365, one can estimate that an phase of 10 degree corresponds to a cellular thickness d=0.6 μm. Using this relation between phase and thickness, phase measurements extracted from specific pixels of the quantitative phase-contrast image presented FIG. 3c, yields a thickness of 1-3 μm for the neuronal processes and of approximately 8 μm for the cell body. Even with the assumption of a homogeneous distribution of intracellular refractive index (which can be discussed given a certain degree of heterogeneity of its constituents), these estimations of cell morphology give realistic values of typical cell dimensions as described in the literature for the mouse cortical neurons presented here. Using the same assumption for refractive index of the cell, and based on a phase measurement accuracy of 0.7 degree, that is dictated by experimental opto-mechanical noise, we obtain an axial (or vertical) resolution of 40 nanometers.\nAs an example of application of the present invention, the present invention has been applied to study the effects of an excitatory neurotransmitter (glutamate) on the morphology of cultured mouse cortical neurons. The influence of glutamate on neuron morphology has been already described as resulting from excitotoxicity, for high concentrations (20-500 μM) and long exposures of several minutes. […] It has also been established that this effect occurs in response to the activation of N-methyl-D-aspartate (NMDA) receptors. FIG. 4a presents the temporal evolution of the phase signal measured, in real-time by DHI, in the domain delimited by a black rectangle in FIG. 4b, which presents a typical example of a quantitative phase contrast image of a living mouse cortical neuron immersed in a physiological solution. […] These pulses of pharmacological agents are indicated by black triangles in FIG. 4a. […] The concentrations of GLUT, are respectively 15 μM, 10 μM, 15 μM and 20 μM. At instants indicated by black triangles 45 and 46, 400 μM of kynurenate (KYN), a broad spectrum ionotropic glutamate receptor antagonist, has been added to GLUT. […] These OPL increases could be reproduced several times over periods of more than three hours. […] A concentration-response curve (FIG. 4c) has been established on the basis of 5 different experiments. As response amplitudes vary from cell to cell, results were normalized with respect to the maximal response which occurred at a concentration of ˜15 μM. […] Without glycine cells started to respond at glutamate concentrations higher than 15 μM and for only ˜25% of cells (vs. ˜80% in the presence of glycine). As glycine is an NMDA receptor co-agonist, this behavior further emphasizes the role these receptors in the glutamate-evoked responses. The maximum amplitude of a typical phase increase is ˜10 degree representing ˜5% of the initial cellular phase. If we assume once again a constant cellular refractive index (ns=1.365), this corresponds to an increase in the vertical (z) axis of ˜0.6 μm.", "data": [{"compound": "O=C(O)c1cc(=O)c2ccccc2[nH]1", "note": "[KYN, kynurenate]", "values": [{"measurement": "effect on glutamate-evoked phase signal", "setting": "400 μM added to GLUT", "result": "No increase of the phase signal occurs"}]}, {"compound": "C[C@]12N[C@H](Cc3ccccc31)c1ccccc12", "note": "[MK-801]", "values": [{"measurement": "effect on glutamate-evoked phase signal", "setting": "5 μM added to GLUT", "result": "inhibited"}]}, {"compound": "N[C@@H](CCC(=O)O)C(=O)O", "note": "[glutamate]", "values": [{"measurement": "maximum amplitude of a typical phase increase", "result": "~10", "unit": "degree"}, {"measurement": "maximum phase increase as share of the initial cellular phase", "result": "~5", "unit": "%"}, {"measurement": "EC50", "setting": "20 seconds pulses, glycine (3 μM) in perfusion solutions, 5 different experiments, normalized to maximal response, read-out: EC50 of glutamate-evoked phase response (Hill equation fit of concentration-response curve)", "result": "~7.5", "unit": "µM"}, {"measurement": "phase signal on application alone", "setting": "GLUT 15, 10, 15 and 20 μM pulses of 20 seconds", "result": "Marked phase increases"}, {"measurement": "increase in the vertical (z) axis", "setting": "assuming constant cellular refractive index ns=1.365", "result": "~0.6", "unit": "μm"}, {"measurement": "Hill coefficient", "setting": "concentration-response curve, glycine (3 μM) present", "result": "3.75±0.4"}, {"measurement": "concentration at which the maximal response occurred", "setting": "glycine (3 μM) present", "result": "~15", "unit": "µM"}, {"measurement": "cells responding", "setting": "in the presence of glycine", "result": "~80", "unit": "%"}, {"measurement": "cells responding", "setting": "without glycine", "result": "~25", "unit": "%"}, {"measurement": "glutamate concentration at which cells started to respond", "setting": "without glycine", "result": "higher than 15 μM"}]}]}
